Key:
Format in all cases: in vivo
arterial blood pressure = assay: Hypotensive effects in the anesthetized dog; conditions: Canis lupus familiaris, iv, read-out: Hypotensive effect; for inhibition in vivo at 0.01 mg/kg: 10 μg/kg; for inhibition in vivo at 0.03 mg/kg: 30 μg/kg
Method: (§1) Adult mongrel dogs were anesthetized with sodium pentobarbital (30 mg/kg i.v.). Effects of test compounds on arterial blood pressure, coronary arterial blood flow, vertebral blood flow, renal blood flow, left ventricular dp/dt max (dp/dt max) and urine volume were observed. The compounds were administered intravenously (i.v.) or intraduodenally (i.d.).

left coronary blood flow = assay: Coronary blood flow after injection into left coronary artery of anesthetized dogs; conditions: intracoronary injection, anesthetized dog; for Increase in CBF ED50: dose to increase CBF by half of the effect of nifedipine (3 μg); for Decrease in CBF ED-50: dose to decrease CBF by 50% from basal value
Method: (§2) Dogs of either sex were anesthetized with sodium pentobarbital (30 mg/kg i.v.). Heparin (500 U/kg i.v.) was administered before making preparation. Under artificial respiration (18 strokes/min, 20 ml/kg tidal volume), left ventricular dp/dt max, and left coronary blood flow were measured (1). Test compounds were injected into the left coronary artery in a volume of 10 or 30 μl. The effects of compounds on coronary blood flow were observed and presented generally as ED50, a dose required to increase coronary blood flow by a half of the effects of nifedipine (3 μg). Similarly, the effects on dp/dt max were observed and shown as ED30, a dose required to increase dp/dt max by 30% of the efffects of isoproterenol (0.1 μg).

[1] = system: left ventricular dp/dt max; assay: Left ventricular dp/dt max after injection into left coronary artery of anesthetized dogs; conditions: intracoronary injection, anesthetized dog; dose to increase dp/dt max by 30% of effect of isoproterenol (0.1 μg)
Method: as §2

[2] = system: coronary arterial blood flow; assay: Coronary vasodilating effects in the anesthetized dog; conditions: Canis lupus familiaris, iv, read-out: Increase in coronary blood flow; for change in vivo at 0.3 mg/kg: 300 μg/kg; for change in vivo at 0.01 mg/kg: 10 μg/kg; for change in vivo at 0.03 mg/kg: 30 μg/kg
Method: as §1

[3] = system: left ventricular dp/dt max; assay: Cardiotonic effects in the anesthetized dog; conditions: Canis lupus familiaris, iv, 300 μg/kg; read-out: Increase in dp/dt max
Method: as §1

Row | Structure (SMILES) | Increase in CBF ED50 (left coronary blood flow) | Increase in dp/dt max ED30 [1] | further results
1 | CCOC(=O)C1=C(C)Nc2ccnn2C1c1ccccc1C(F)(F)F (single isomer, unassigned) [(20), 6-Ethoxycarbonyl-5-methyl-7-(2-trifluoromethylphenyl)-4,7-dihydropyrazolo[1,5-a]pyrimidine, optical isomer (-)] |  |  | inhibition in vivo at 0.01 mg/kg (arterial blood pressure): 22%
2 | CC1=C(C(=O)OC(CN2CCCCC2)c2ccccc2)C(c2cccc([N+](=O)[O-])c2)n2nccc2N1 (stereo not drawn) [(2), 1-Phenyl-2-piperidinoethyl 5-methyl-7-(3-nitrophenyl)-4,7-dihydropyrazolo[1,5-a]pyrimidine-6-carboxylate (β-form of diastereomer)] | 1.5 µg | > 10 µg | inhibition in vivo at 0.03 mg/kg (arterial blood pressure): 37%
3 | CCOC(=O)C1=C(C)Nc2ccnn2C1c1ccccc1Cl (stereo not shown) [(4), 7-(2-Chlorophenyl)-6-ethoxycarbonyl-5-methyl-4,7-dihydropyrazolo[1,5-a]pyrimidine] |  |  | change in vivo at 0.3 mg/kg [2]: 33%
4 | CCOC(=O)C1=C(CO)Nc2ccnn2C1c1ccccc1C(F)(F)F (stereo not shown) [(5), 6-Ethoxycarbonyl-5-hydroxymethyl-7-(2-trifluoromethylphenyl)-4,7-dihydropyrazolo[1,5-a]pyrimidine] |  |  | change in vivo at 0.3 mg/kg [2]: 43%; change in vivo at 0.3 mg/kg [3]: 20%
5 | CC1=C(C(=O)OCC2CC2)C(c2ccccc2C(F)(F)F)n2nccc2N1 (stereo not shown) [(6), 6-Cyclopropylmethyloxycarbonyl-5-methyl-7-(2-trifluoromethylphenyl)-4,7-dihydropyrazolo[1,5-a]pyrimidine] |  |  | change in vivo at 0.01 mg/kg [2]: 45%
6 | CC1=C(C(=O)OCC2CC2)C(c2ccccc2C(F)(F)F)n2ncc(C#N)c2N1 (stereo not shown) [(7), 3-Cyano-6-cyclopropylmethyloxycarbonyl-5-methyl-7-(2-trifluoromethylphenyl)-4,7-dihydropyrazolo[1,5-a]pyrimidine] | 2.0 µg | > 30 µg | inhibition in vivo at 0.01 mg/kg (arterial blood pressure): 20%; change in vivo at 0.01 mg/kg [2]: 52%
7 | COCC(OC(=O)C1=C(C)Nc2ccnn2C1c1ccccc1C(F)(F)F)c1ccccc1 (stereo not drawn) [(8), 1-Phenyl-2-methoxyethyl 5-methyl-7-(2-trifluoromethylphenyl)-4,7-dihydropyrazolo[1,5-a]pyrimidine-6-carboxylate (β-form of diastereomer)] |  |  | change in vivo at 0.01 mg/kg [2]: 33%
8 | CC1=C(C(=O)OCC(C)C)C(c2ccccc2C(F)(F)F)n2nccc2N1 (stereo not shown) [(12), 6-Isobutoxycarbonyl-5-methyl-7-(2-trifluoromethylphenyl)-4,7-dihydropyrazolo[1,5-a]pyrimidine] | 1.8 µg | > 300 µg | 
9 | CCOC(=O)C1=C(C)Nc2c(C#N)cnn2C1c1ccccc1C(F)(F)F (stereo not shown) [(14), 3-Cyano-6-ethoxycarbonyl-5-methyl-7-(2-trifluoromethylphenyl)-4,7-dihydropyrazolo[1,5-a]pyrimidine] | 1.6 µg | > 100 µg | inhibition in vivo at 0.01 mg/kg (arterial blood pressure): 20%; change in vivo at 0.01 mg/kg [2]: 54%
10 | CCOC(=O)C1=C(C)Nc2c(Cl)cnn2C1c1ccccc1C(F)(F)F (stereo not shown) [(16), 3-Chloro-6-ethoxycarbonyl-5-methyl-7-(2-trifluoromethylphenyl)-4,7-dihydropyrazolo[1,5-a]pyrimidine] |  |  | inhibition in vivo at 0.3 mg/kg (arterial blood pressure; 300 μg/kg): 29%; change in vivo at 0.3 mg/kg [2]: 113%
11 | CCOC(=O)C1=C(C)Nc2ccnn2C1c1ccccc1SCc1ccccc1 (stereo not shown) [(17), 7-(2-Benzylthiophenyl)-6-ethoxycarbonyl-5-methyl-4,7-dihydropyrazolo[1,5-a]pyrimidine] |  | 6.7 µg | Decrease in CBF ED-50 (left coronary blood flow): 1.1 µg
12 | CCOC(=O)C1=C(C)Nc2ccnn2C1c1ccccc1OC(F)F (stereo not shown) [(18), 7-(2-Difluoromethoxyphenyl)-6-ethoxycarbonyl-5-methyl-4,7-dihydropyrazolo[1,5-a]pyrimidine] |  |  | change in vivo at 0.3 mg/kg [2]: 89%; change in vivo at 0.3 mg/kg [3]: 20%
13 | COc1ccc(CCOC(=O)C2=C(C)Nc3ccnn3C2c2ccccc2C(F)(F)F)cc1OC (stereo not shown) [(19), 6-[2-(3,4-Dimethoxyphenyl)ethyl]oxycarbonyl-5-methyl-7-(2-trifluoromethylphenyl)-4,7-dihydropyrazolo[1,5-a]pyrimidine] |  | 14 µg | Decrease in CBF ED-50 (left coronary blood flow): 1.2 µg
14 | CCOC(=O)C1=C(C)Nc2nnnn2C1c1ccccc1C(F)(F)F (stereo not shown) [(21), 6-Ethoxycarbonyl-5-methyl-7-(2-trifluoromethylphenyl)-4,7-dihydrotetrazolo[1,5-a]pyrimidine] |  |  | change in vivo at 0.3 mg/kg [2]: 63%
15 | CCC(CC)OC(=O)C1=C(C)Nc2ccnn2C1c1ccccc1C(F)(F)F (stereo not shown) [(22), 5-Methyl-6-(3-pentyloxycarbonyl)-7-(2-trifluoromethylphenyl)-4,7-dihydropyrazolo[1,5-a]pyrimidine] |  |  | change in vivo at 0.3 mg/kg [2]: 107%; change in vivo at 0.3 mg/kg [3]: 24%
16 | CCOC(=O)C1=C(CF)Nc2ccnn2C1c1ccccc1C(F)(F)F (stereo not shown) [(24), 6-Ethoxycarbonyl-5-fluoromethyl-7-(2-trifluoromethylphenyl)-4,7-dihydropyrazolo[1,5-a]pyrimidine] |  | 86 µg | Decrease in CBF ED-50 (left coronary blood flow): > 300 µg
17 | CC1=C(C(=O)OC(C)C)C(c2ccccc2Cl)n2nccc2N1 (stereo not shown) [(26), 7-(2-Chlorophenyl)-6-isopropoxycarbonyl-5-methyl-4,7-dihydropyrazolo[1,5-a]pyrimidine] | 13 µg | 133 µg | change in vivo at 0.03 mg/kg [2]: 33%
18 | CC1=C(C(=O)OC(C)C)C(c2cccc(Cl)c2Cl)n2nccc2N1 (stereo not shown) [(28), 7-(2,3-Dichlorophenyl)-6-isopropoxycarbonyl-5-methyl-4,7-dihydropyrazolo[1,5-a]pyrimidine] |  |  | inhibition in vivo at 0.03 mg/kg (arterial blood pressure): 29%; change in vivo at 0.03 mg/kg [2]: 53%
19 | CC1=C(C(=O)OC(C)C)C(c2ccccc2F)n2ncc(C#N)c2N1 (stereo not shown) [(29), 3-Cyano-7-(2-fluorophenyl)-6-isopropoxycarbonyl-5-methyl-4,7-dihydropyrazolo[1,5-a]pyrimidine] | 1.0 µg | > 30 µg | 
20 | CC1=C(C(=O)OC(C)C)C(c2cccc(F)c2F)n2nccc2N1 (stereo not shown) [(31), 7-(2,3-Difluorophenyl)-6-isopropoxycarbonyl-5-methyl-4,7-dihydropyrazolo[1,5-a]pyrimidine] | 1.4 µg | > 30 µg | 
21 | CC1=C(C(=O)OC(C)C)C(c2cc(F)ccc2F)n2nccc2N1 (stereo not shown) [(32), 7-(2,5-Difluorophenyl)-6-isopropoxycarbonyl-5-methyl-4,7-dihydropyrazolo[1,5-a]pyrimidine] | 8 µg | 93 µg | 
22 | CC1=C(C(=O)OC(C)C)C(c2cccc(F)c2Cl)n2nccc2N1 (stereo not shown) [(33), 7-(2-Chloro-3-fluorophenyl)-6-isopropoxycarbonyl-5-methyl-4,7-dihydropyrazolo[1,5-a]pyrimidine] | 1.4 µg | > 30 µg | 
23 | CC1=C(C(=O)OC(CN2CCCCC2)c2ccccc2)C(c2cccc([N+](=O)[O-])c2)n2ccnc2N1 (stereo not drawn) [(34), 1-Phenyl-2-piperidinoethyl 7-methyl-5-(3-nitrophenyl)-5,8-dihydroimidazo[1,2-a]pyrimidine-6-carboxylate (β-form of diastereomer)] | 10.0 µg | > 30 µg | 
24 | CC1=C(C(=O)OC(C)C)C(c2cccc(F)c2F)n2ncc(C#N)c2N1 (stereo not shown) [(35), 3-Cyano-7-(2,3-difluorophenyl)-6-isopropoxycarbonyl-5-methyl-4,7-dihydropyrazolo[1,5-a]pyrimidine] | 0.28 µg | > 30 µg | 
